Numbers after ± are expanded uncertainties.
Test: xn = mol fraction of the nth substance listed
Settings: 101.3 kPa, Liquid; for speed of sound: Frequency=3 MHz, Single path-length method; for mass density: Vibrating tube method

For CCCOCCO [2-propoxyethanol] + CCn1cc[n+](C)c1.O=S(=O)([O-])C(F)(F)F, the speed of sound (298.15 K, x2 = 0) was 1301 ± 10 m/s, the speed of sound (298.15 K, x2 = 0.051) was 1308 ± 10 m/s and the speed of sound (298.15 K, x2 = 0.104) was 1317 ± 10 m/s. For the same compound, the speed of sound (298.15 K, x2 = 0.199) was 1331 ± 10 m/s, the speed of sound (298.15 K, x2 = 0.241) was 1338 ± 10 m/s and the speed of sound (298.15 K, x2 = 0.296) was 1346 ± 10 m/s. The speed of sound (298.15 K, x2 = 0.416) was 1364 ± 10 m/s, the speed of sound (298.15 K, x2 = 0.506) was 1377 ± 10 m/s and the speed of sound (298.15 K, x2 = 0.606) was 1391 ± 10 m/s. For the same compound, the speed of sound (298.15 K, x2 = 0.698) was 1404 ± 10 m/s, the speed of sound (298.15 K, x2 = 0.808) was 1419 ± 10 m/s and the speed of sound (298.15 K, x2 = 0.845) was 1424 ± 10 m/s. It also gave a speed of sound (298.15 K, x2 = 0.898) of 1431 ± 10 m/s, a speed of sound (298.15 K, x2 = 0.953) of 1438 ± 10 m/s and a mass density (298.15 K, x2 = 0) of 908 ± 2 kg/m3. The mass density (298.15 K, x2 = 0.051) was 945 ± 3 kg/m3, the mass density (298.15 K, x2 = 0.104) was 981 ± 2 kg/m3 and the mass density (298.15 K, x2 = 0.199) was 1042 ± 2 kg/m3. For the same compound, the mass density (298.15 K, x2 = 0.241) was 1067 ± 2 kg/m3, the mass density (298.15 K, x2 = 0.296) was 1098 ± 2 kg/m3 and the mass density (298.15 K, x2 = 0.416) was 1161 ± 2 kg/m3. It also gave a mass density (298.15 K, x2 = 0.506) of 1204 ± 2 kg/m3, a mass density (298.15 K, x2 = 0.606) of 1247 ± 2 kg/m3 and a mass density (298.15 K, x2 = 0.698) of 1284 ± 2 kg/m3. The mass density (298.15 K, x2 = 0.808) was 1324 ± 2 kg/m3, the mass density (298.15 K, x2 = 0.845) was 1336 ± 2 kg/m3 and the mass density (298.15 K, x2 = 0.898) was 1353 ± 2 kg/m3. The mass density (298.15 K, x2 = 0.953) was 1369 ± 2 kg/m3, the speed of sound (303.15 K, x2 = 0) was 1283 ± 10 m/s and the speed of sound (303.15 K, x2 = 0.051) was 1292 ± 10 m/s. It also gave a speed of sound (303.15 K, x2 = 0.104) of 1300 ± 10 m/s, a speed of sound (303.15 K, x2 = 0.199) of 1316 ± 10 m/s and a speed of sound (303.15 K, x2 = 0.241) of 1323 ± 10 m/s. The speed of sound (303.15 K, x2 = 0.296) was 1332 ± 10 m/s, the speed of sound (303.15 K, x2 = 0.416) was 1351 ± 10 m/s and the speed of sound (303.15 K, x2 = 0.506) was 1364 ± 10 m/s. For the same compound, the speed of sound (303.15 K, x2 = 0.606) was 1379 ± 10 m/s, the speed of sound (303.15 K, x2 = 0.698) was 1392 ± 10 m/s and the speed of sound (303.15 K, x2 = 0.808) was 1408 ± 10 m/s. It also gave a speed of sound (303.15 K, x2 = 0.845) of 1413 ± 10 m/s, a speed of sound (303.15 K, x2 = 0.898) of 1420 ± 10 m/s and a speed of sound (303.15 K, x2 = 0.953) of 1427 ± 10 m/s. It also gave a mass density (303.15 K, x2 = 0) of 903 ± 2 kg/m3, a mass density (303.15 K, x2 = 0.051) of 940 ± 3 kg/m3 and a mass density (303.15 K, x2 = 0.104) of 976 ± 2 kg/m3. It also gave a mass density (303.15 K, x2 = 0.199) of 1037 ± 2 kg/m3, a mass density (303.15 K, x2 = 0.241) of 1063 ± 2 kg/m3 and a mass density (303.15 K, x2 = 0.296) of 1094 ± 2 kg/m3. For the same compound, the mass density (303.15 K, x2 = 0.416) was 1157 ± 2 kg/m3, the mass density (303.15 K, x2 = 0.506) was 1200 ± 2 kg/m3 and the mass density (303.15 K, x2 = 0.606) was 1243 ± 2 kg/m3. The mass density (303.15 K, x2 = 0.698) was 1280 ± 2 kg/m3, the mass density (303.15 K, x2 = 0.808) was 1320 ± 2 kg/m3 and the mass density (303.15 K, x2 = 0.845) was 1332 ± 2 kg/m3. For the same compound, the mass density (303.15 K, x2 = 0.898) was 1349 ± 2 kg/m3, the mass density (303.15 K, x2 = 0.953) was 1365 ± 2 kg/m3 and the speed of sound (308.15 K, x2 = 0) was 1266 ± 10 m/s. The speed of sound (308.15 K, x2 = 0.051) was 1275 ± 10 m/s, the speed of sound (308.15 K, x2 = 0.104) was 1284 ± 10 m/s and the speed of sound (308.15 K, x2 = 0.199) was 1301 ± 10 m/s. The speed of sound (308.15 K, x2 = 0.241) was 1308 ± 10 m/s, the speed of sound (308.15 K, x2 = 0.296) was 1318 ± 10 m/s and the speed of sound (308.15 K, x2 = 0.416) was 1338 ± 10 m/s. For the same compound, the speed of sound (308.15 K, x2 = 0.506) was 1352 ± 10 m/s, the speed of sound (308.15 K, x2 = 0.606) was 1367 ± 10 m/s and the speed of sound (308.15 K, x2 = 0.698) was 1381 ± 10 m/s. For the same compound, the speed of sound (308.15 K, x2 = 0.808) was 1396 ± 10 m/s, the speed of sound (308.15 K, x2 = 0.845) was 1402 ± 10 m/s and the speed of sound (308.15 K, x2 = 0.898) was 1409 ± 10 m/s. For the same compound, the speed of sound (308.15 K, x2 = 0.953) was 1416 ± 10 m/s, the mass density (308.15 K, x2 = 0) was 899 ± 2 kg/m3 and the mass density (308.15 K, x2 = 0.051) was 936 ± 3 kg/m3. It also gave a mass density (308.15 K, x2 = 0.104) of 972 ± 2 kg/m3, a mass density (308.15 K, x2 = 0.199) of 1033 ± 2 kg/m3 and a mass density (308.15 K, x2 = 0.241) of 1059 ± 2 kg/m3. For the same compound, the mass density (308.15 K, x2 = 0.296) was 1089 ± 2 kg/m3, the mass density (308.15 K, x2 = 0.416) was 1153 ± 2 kg/m3 and the mass density (308.15 K, x2 = 0.506) was 1196 ± 2 kg/m3. The mass density (308.15 K, x2 = 0.606) was 1239 ± 2 kg/m3, the mass density (308.15 K, x2 = 0.698) was 1276 ± 2 kg/m3 and the mass density (308.15 K, x2 = 0.808) was 1316 ± 2 kg/m3. It also gave a mass density (308.15 K, x2 = 0.845) of 1328 ± 2 kg/m3, a mass density (308.15 K, x2 = 0.898) of 1344 ± 2 kg/m3 and a mass density (308.15 K, x2 = 0.953) of 1361 ± 2 kg/m3. It also gave a speed of sound (313.15 K, x2 = 0) of 1248 ± 10 m/s, a speed of sound (313.15 K, x2 = 0.051) of 1258 ± 10 m/s and a speed of sound (313.15 K, x2 = 0.104) of 1268 ± 10 m/s. The speed of sound (313.15 K, x2 = 0.199) was 1286 ± 10 m/s, the speed of sound (313.15 K, x2 = 0.241) was 1294 ± 10 m/s and the speed of sound (313.15 K, x2 = 0.296) was 1304 ± 10 m/s. The speed of sound (313.15 K, x2 = 0.416) was 1324 ± 10 m/s, the speed of sound (313.15 K, x2 = 0.506) was 1339 ± 10 m/s and the speed of sound (313.15 K, x2 = 0.606) was 1355 ± 10 m/s. The speed of sound (313.15 K, x2 = 0.698) was 1369 ± 10 m/s, the speed of sound (313.15 K, x2 = 0.808) was 1385 ± 10 m/s and the speed of sound (313.15 K, x2 = 0.845) was 1390 ± 10 m/s. For the same compound, the speed of sound (313.15 K, x2 = 0.898) was 1398 ± 10 m/s, the speed of sound (313.15 K, x2 = 0.953) was 1405 ± 10 m/s and the mass density (313.15 K, x2 = 0) was 895 ± 2 kg/m3. The mass density (313.15 K, x2 = 0.051) was 931 ± 3 kg/m3, the mass density (313.15 K, x2 = 0.104) was 968 ± 2 kg/m3 and the mass density (313.15 K, x2 = 0.199) was 1029 ± 2 kg/m3. The mass density (313.15 K, x2 = 0.241) was 1054 ± 2 kg/m3, the mass density (313.15 K, x2 = 0.296) was 1085 ± 2 kg/m3 and the mass density (313.15 K, x2 = 0.416) was 1149 ± 2 kg/m3. The mass density (313.15 K, x2 = 0.506) was 1192 ± 2 kg/m3, the mass density (313.15 K, x2 = 0.606) was 1235 ± 2 kg/m3 and the mass density (313.15 K, x2 = 0.698) was 1272 ± 2 kg/m3. The mass density (313.15 K, x2 = 0.808) was 1311 ± 2 kg/m3, the mass density (313.15 K, x2 = 0.845) was 1324 ± 2 kg/m3 and the mass density (313.15 K, x2 = 0.898) was 1340 ± 2 kg/m3. For the same compound, the mass density (313.15 K, x2 = 0.953) was 1357 ± 2 kg/m3, the speed of sound (318.15 K, x2 = 0) was 1231 ± 10 m/s and the speed of sound (318.15 K, x2 = 0.051) was 1241 ± 10 m/s. The speed of sound (318.15 K, x2 = 0.104) was 1252 ± 10 m/s, the speed of sound (318.15 K, x2 = 0.199) was 1271 ± 10 m/s and the speed of sound (318.15 K, x2 = 0.241) was 1279 ± 10 m/s. It also gave a speed of sound (318.15 K, x2 = 0.296) of 1289 ± 10 m/s, a speed of sound (318.15 K, x2 = 0.416) of 1311 ± 10 m/s and a speed of sound (318.15 K, x2 = 0.506) of 1327 ± 10 m/s. For the same compound, the speed of sound (318.15 K, x2 = 0.606) was 1343 ± 10 m/s, the speed of sound (318.15 K, x2 = 0.698) was 1357 ± 10 m/s and the speed of sound (318.15 K, x2 = 0.808) was 1374 ± 10 m/s. It also gave a speed of sound (318.15 K, x2 = 0.845) of 1379 ± 10 m/s, a speed of sound (318.15 K, x2 = 0.898) of 1386 ± 10 m/s and a speed of sound (318.15 K, x2 = 0.953) of 1394 ± 10 m/s. For the same compound, the mass density (318.15 K, x2 = 0) was 890 ± 2 kg/m3, the mass density (318.15 K, x2 = 0.051) was 927 ± 3 kg/m3 and the mass density (318.15 K, x2 = 0.104) was 963 ± 2 kg/m3. It also gave a mass density (318.15 K, x2 = 0.199) of 1024 ± 2 kg/m3, a mass density (318.15 K, x2 = 0.241) of 1050 ± 2 kg/m3 and a mass density (318.15 K, x2 = 0.296) of 1081 ± 2 kg/m3. The mass density (318.15 K, x2 = 0.416) was 1145 ± 2 kg/m3, the mass density (318.15 K, x2 = 0.506) was 1187 ± 2 kg/m3 and the mass density (318.15 K, x2 = 0.606) was 1231 ± 2 kg/m3. The mass density (318.15 K, x2 = 0.698) was 1268 ± 2 kg/m3, the mass density (318.15 K, x2 = 0.808) was 1307 ± 2 kg/m3 and the mass density (318.15 K, x2 = 0.845) was 1320 ± 2 kg/m3. For the same compound, the mass density (318.15 K, x2 = 0.898) was 1336 ± 2 kg/m3 and the mass density (318.15 K, x2 = 0.953) was 1353 ± 2 kg/m3.
